Data as given in patent publication EP0377127B1, “Use of Myricetin-3-O-beta-D glucuronide as medicament” (Plantamed Arzneimittel GmbH, priority 1989, dated 1990).
Like-named read-outs stand apart in the source and are kept apart here.

Assays:
[1] = test system: Carrageenin-induzierte Rattenpfotenödem; assay: Carrageenin-induced rat paw oedema (acute inflammation model); format: in vivo, Ratte
Method: Zur Prüfung der entzündungshemmenden Wirkung dieser Substanz wird das Modell des Carrageenin-induzierten Rattenpfotenödems herangezogen, ein allgemein anerkanntes Modell zur Ermittlung anhand einer akuten Entzündung. Die entzündungshemmende Wirkung von vakuumgetrockneten und lyophilisierten Extrakten ist in Abb. 1 wiedergegeben. Bei der Anwendung von vakuumgetrocknetem Blattextrakt von Epilobium angustifolium wurde eine Dosis von 72 mg/kg Ratte, für sprühgetrockneten Blattextrakt eine Dosis von 136,47 mg/kg Ratte und für lyophilisierten Blattextrakt eine Dosis von 16,4 mg/kg Ratte eingesetzt. Das Ausmaß der entzündungswirkenden von vakuumgetrockneten und lyophilisierten Extrakten der in Abbildung 1 aufgezeigten Konzentrationen entspricht ca. 1 bis 2 mg Indometacin/kg Ratte.
Der Einfluß auf das Carrageenin-induzierte Rattenpfotenödem geht aus den Kurven in den Abbildungen 2 und 3 hervor. Abbildung 2 stellt unterschiedliche Dosen von HIMAK einander gegenüber, Abb. 3 dient dem Vergleich von HIMAK einer bestimmten Dosis mit einem wässrigen Auszug von Epilobium und Indometacin. Der Darstellung des Einflusses der erfindungsgemäßen Substanz auf die Prostaglandin-Biosynthese am pharmakologischen Modell nach ISAKSON, modifiziert nach JUAN und SAMETZ am perfundierten Kaninchenohr sowie mittels Radioimmunoassay (RIA) dienen die Abbildungen 4 und 5.

PG-Biosynthese = assay: Prostaglandin biosynthesis in the perfused rabbit ear (labelled arachidonic acid, metabolites separated by TLC; RIA); format: cell-based, Kaninchen; settings: for inhibition at 1 µg/mL: Oryctolagus cuniculus, read-out: hemmen die Biosynthese von PGI₂ und PGE₂
From the text: Methode: Perfundiertes Kaninchenohr mit C-Arachidonsäure, Vormarkierung und Messung der radioaktiven Metalboliten mittels Auftrennung durch DC. • 2.

Magenschleimhaut = assay: Preliminary examination of gastric mucosa damage after peroral dosing; format: in vivo; settings: 1 mg/kg, preliminary examinations
From the text: Es ist gesicherte Erkenntnis, daß Cyclooxygenase-Hemmer, also Hemmer der Biosynthese von Prostaglandinen, wie etwa Indo, die Magenschleimhaut schädigen können. […] Im Ergebnis liefern diese Untersuchungen einen Hinweis auf die wesentlich günstiger zu beurteilende Frage der Toxizität von HIMAK.

Row | SMILES | Dosisbereich, der das Carrageenin-Pfotenödem ähnlich stark reduziert wie 1 mg/kg Indomethacin (p.o.) ([1]; compared with 1 mg/kg Indomethacin p.o.) | Hemmung der experimentellen akuten Entzündung (Rattenpfotenödem mit Carrageenin) (in words) ([1]; dose-dependent) | Wirksamkeit im Vergleich mit der Referenzsubstanz Indo auf Gewichtsbasis (in words) ([1]; first experiments, weight basis) | so wirksam wie Indo, auf geschätzter Molekulargewichtsbasis ([1]; potency relative to Indo, estimated molecular weight basis) | so wirksam wie Indo, auf Gewichtsbasis ([1]; potency relative to Indo, weight basis) | inhibition at 1 µg/mL (PG-Biosynthese; 1 »g/ml (Endkonzentration) Indo, ca. 1 »g/ml HIMAK, perfused rabbit ear) | Hemmung der Biosynthese von Prostaglandinen (in words) (PG-Biosynthese; dose-dependent) | Hemmung der PG-Biosynthese im Vergleich mit Indo (in words) (PG-Biosynthese; weight basis, similar concentration as Indo (Abb. 4)) | Bildung kleiner Erosionen in der Magenschleimhaut (Magenschleimhaut) | inhibition at 1 µg/mL (PG-Biosynthese)
1 | O=C(O)[C@H]1O[C@@H](Oc2c(-c3cc(O)c(O)c(O)c3)oc3cc(O)cc(O)c3c2=O)[C@H](O)[C@@H](O)[C@@H]1O [HIMAK, Myricetin-3-0-β-D-glucuronid] | 40 - 200 »g/kg KG | deutlich hemmen | wesentlich wirksamer | ~5 mal | ≥ 10 mal | > 80% | deutlich hemmen | in etwa gleichem Ausmaß gehemmt | nicht der Fall | –
2 | COc1ccc2c(c1)c(CC(=O)O)c(C)n2C(=O)c1ccc(Cl)cc1 [Indo, Indometacin, reference compound] | – | – | – | – | – | – | – | – | Bildung kleiner Erosionen in der Magenschleimhaut | > 80%
